Data reported in US20100061982A1, “3-SUBSTITUTED-1H-INDOLE, 3-SUBSTITUTED-1H-PYRROLO[2,3-B]PYRIDINE AND 3-SUBSTITUTED-1H-PYRROLO[3,2-B]PYRIDINE COMPOUNDS, THEIR USE AS MTOR KINASE AND PI3 KINASE INHIBITORS, AND THEIR SYNTHESES” (priority 2008, published 2010).
Read-outs that look alike come from different tables or passages of the source.

Legend:
[1] = Microsome Stability (15 min), rat; format: in vitro ADME; details: microsomes, Phase I (NADPH), read-out: Microsome Stability (15 min) T ½ Phase I rat
[2] = PAMPA permeability pH 7.4
PI3K alpha = PI3K alpha (Homo sapiens, UniProt P42336); experiment: PI3K-alpha Fluorescence Polarization Assay; format: biochemical
Chain of PI3K alpha (P42336 whole entry, species assumed): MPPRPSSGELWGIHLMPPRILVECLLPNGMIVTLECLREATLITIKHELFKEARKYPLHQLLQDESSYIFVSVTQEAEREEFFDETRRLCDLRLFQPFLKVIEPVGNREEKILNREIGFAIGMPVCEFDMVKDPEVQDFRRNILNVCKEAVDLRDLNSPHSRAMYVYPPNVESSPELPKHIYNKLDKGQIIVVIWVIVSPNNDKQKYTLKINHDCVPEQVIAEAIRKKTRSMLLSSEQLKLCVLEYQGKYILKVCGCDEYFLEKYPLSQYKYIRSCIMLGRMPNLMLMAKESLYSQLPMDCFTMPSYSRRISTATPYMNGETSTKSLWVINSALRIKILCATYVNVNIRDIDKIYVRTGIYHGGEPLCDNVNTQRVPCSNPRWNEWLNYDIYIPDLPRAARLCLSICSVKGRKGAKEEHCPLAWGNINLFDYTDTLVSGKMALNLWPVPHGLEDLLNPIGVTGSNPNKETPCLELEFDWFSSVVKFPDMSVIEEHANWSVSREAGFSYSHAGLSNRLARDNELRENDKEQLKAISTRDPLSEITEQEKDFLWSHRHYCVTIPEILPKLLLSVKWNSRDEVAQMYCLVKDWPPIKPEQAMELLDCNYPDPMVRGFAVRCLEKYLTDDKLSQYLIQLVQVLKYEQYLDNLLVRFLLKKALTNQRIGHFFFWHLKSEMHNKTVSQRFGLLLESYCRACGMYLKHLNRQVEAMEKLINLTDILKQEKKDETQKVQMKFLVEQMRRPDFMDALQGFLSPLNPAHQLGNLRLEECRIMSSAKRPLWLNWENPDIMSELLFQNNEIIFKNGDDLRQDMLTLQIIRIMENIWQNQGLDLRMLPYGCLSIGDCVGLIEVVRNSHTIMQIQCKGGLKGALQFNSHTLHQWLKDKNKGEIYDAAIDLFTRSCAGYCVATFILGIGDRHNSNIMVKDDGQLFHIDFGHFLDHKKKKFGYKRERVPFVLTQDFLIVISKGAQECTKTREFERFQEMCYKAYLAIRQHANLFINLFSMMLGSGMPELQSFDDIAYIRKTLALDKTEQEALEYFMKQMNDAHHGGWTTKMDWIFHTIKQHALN
Chain of PI3K alpha (P27986 whole entry partner, species assumed): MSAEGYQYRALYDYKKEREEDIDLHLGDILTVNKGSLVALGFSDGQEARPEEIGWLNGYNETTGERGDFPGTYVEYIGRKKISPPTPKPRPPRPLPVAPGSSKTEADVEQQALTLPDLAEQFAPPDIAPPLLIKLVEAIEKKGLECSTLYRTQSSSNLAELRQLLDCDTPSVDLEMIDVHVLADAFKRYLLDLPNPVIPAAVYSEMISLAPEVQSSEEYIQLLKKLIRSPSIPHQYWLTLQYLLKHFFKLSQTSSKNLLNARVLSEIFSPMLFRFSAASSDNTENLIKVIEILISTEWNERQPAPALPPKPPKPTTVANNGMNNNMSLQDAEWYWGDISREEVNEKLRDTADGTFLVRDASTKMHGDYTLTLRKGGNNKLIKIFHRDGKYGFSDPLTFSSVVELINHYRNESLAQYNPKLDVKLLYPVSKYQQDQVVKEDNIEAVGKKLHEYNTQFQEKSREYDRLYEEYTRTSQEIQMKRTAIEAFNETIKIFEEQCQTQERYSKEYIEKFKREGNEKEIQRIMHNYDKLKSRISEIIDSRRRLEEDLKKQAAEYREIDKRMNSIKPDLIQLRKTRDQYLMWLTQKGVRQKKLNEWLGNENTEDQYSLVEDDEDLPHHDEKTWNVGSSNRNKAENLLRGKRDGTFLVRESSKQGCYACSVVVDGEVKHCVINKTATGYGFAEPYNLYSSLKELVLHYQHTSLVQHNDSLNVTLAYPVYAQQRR

[3] = Microsome Stability (15 min), human; format: in vitro ADME; details: microsomes, Phase I (NADPH), read-out: Microsome Stability (15 min) T ½ Phase I human
[4] = Buffer Stability (37° C.)
[5] = Plasma Stability (37° C.), rat
[6] = Microsome Stability (15 min), nude mouse; format: in vitro ADME; details: microsomes, Phase I (NADPH), read-out: Microsome Stability (15 min) T ½ Phase I nude mouse
[7] = In vivo blood/plasma and tumor levels of prodrug and metabolites after 50 mg, kg po; details: 50 mg

half-life [1] [min]	PAMPA Pe [2]	IC50 (PI3K alpha; read-out: PI3K alpha Mean IC50) [µM]	Buffer Stability (37° C.) % Remaining (at 16-23 hours) SGF [4] [%]	Buffer Stability (37° C.) % Remaining (at 16-23 hours) SIF [4] [%]	Buffer Stability (37° C.) % Remaining (at 16-23 hours) pH 1 [4] [%]	Buffer Stability (37° C.) % Remaining (at 16-23 hours) pH 4.5 [4] [%]	Buffer Stability (37° C.) % Remaining (at 16-23 hours) pH 6.6 [4] [%]	Buffer Stability (37° C.) % Remaining (at 16-23 hours) pH 7.4 [4] [%]	Buffer Stability (37° C.) % Remaining (at 16-23 hours) pH 9 [4] [%]	Plasma Stability (37° C.) % Remaining (3-3.5 hours) rat [5] [%]	SMILES	half-life [3] [min]	IC50 (PI3K alpha) [µM]	half-life [6] [min]	plasma prodrug concentration ([7]; 0.5 h)	plasma prodrug concentration ([7]; 2 h)	plasma prodrug concentration ([7]; 6 h (third value))
21	0.04 10e−6 cm/s	–	–	–	–	–	–	–	–	–	Cn1cc(/C=C2\Oc3cc(O)cc(O)c3C2=O)c2c(-c3ccccc3)cccc21 [(2Z)-4,6-dihydroxy-2-[(1-methyl-4-phenyl-1H-indol-3-yl)methylene]-1-benzofuran-3(2H)-one]	–	–	–	–	–	–
–	0.12 10e−6 cm/s	0.472	–	–	–	–	–	–	–	–	COc1ccc2[nH]c(-c3ccccc3)c(/C=C3\Oc4cc(OC(=O)c5ccccc5)cc(OC(=O)c5ccccc5)c4C3=O)c2c1 [Example 6, (2Z)-2-[(5-methoxy-2-phenyl-1H-indol-3-yl)methylene]-3-oxo-2,3-dihydro-1-benzofuran-4,6-diyl dibenzoate]	–	–	–	–	–	–
10	0 10e−6 cm/s	8.53	99	64	96	73	75	4	0	–	COc1ccc2c(c1)c(/C=C1\Oc3cc(OC(=O)c4ccccc4)cc(OC(=O)c4ccccc4)c3C1=O)c(C)n2CCN1CCN(C)CC1 [Example 16, (2Z)-2-({5-methoxy-2-methyl-1-[2-(4-methylpiperazin-1-yl)ethyl]-1H-indol-3-yl}methylene)-3-oxo-2,3-dihydro-1-benzofuran-4,6-diyl dibenzoate]	> 30	–	–	–	–	–
12	0 10e−6 cm/s	> 10	104	0	86	71	50	5	0	6	COc1ccc2c(c1)c(/C=C1\Oc3cc(OC(=O)c4ccccc4)cc(OC(=O)c4ccccc4)c3C1=O)cn2CCCN(C)C [Example 24, (2Z)-2-({1-[3-(dimethylamino)propyl]-5-methoxy-1H-indol-3-yl}methylene)-3-oxo-2,3-dihydro-1-benzofuran-4,6-diyl dibenzoate]	22	–	–	–	–	–

SMILES	half-life [1] [min]	PAMPA Pe [2]	IC50 (PI3K alpha; read-out: PI3K alpha Mean IC50) [µM]	Buffer Stability (37° C.) % Remaining (at 16-23 hours) SGF [4] [%]	Buffer Stability (37° C.) % Remaining (at 16-23 hours) SIF [4] [%]	Buffer Stability (37° C.) % Remaining (at 16-23 hours) pH 1 [4] [%]	Buffer Stability (37° C.) % Remaining (at 16-23 hours) pH 4.5 [4] [%]	Buffer Stability (37° C.) % Remaining (at 16-23 hours) pH 6.6 [4] [%]	Buffer Stability (37° C.) % Remaining (at 16-23 hours) pH 7.4 [4] [%]	Buffer Stability (37° C.) % Remaining (at 16-23 hours) pH 9 [4] [%]	Plasma Stability (37° C.) % Remaining (3-3.5 hours) rat [5] [%]	half-life [3] [min]	IC50 (PI3K alpha) [µM]	half-life [6] [min]	plasma prodrug concentration ([7]; 0.5 h)	plasma prodrug concentration ([7]; 2 h)	plasma prodrug concentration ([7]; 6 h (third value))
COc1ccc2c(c1)c(/C=C1\Oc3cc(OC(=O)N(C(C)C)C(C)C)cc(OC(=O)N(C(C)C)C(C)C)c3C1=O)c(C)n2CCN1CCN(C)CC1 [Example 28, (2Z)-2-({5-methoxy-2-methyl-1-[2-(4-methylpiperazin-1-yl)ethyl]-1H-indol-3-yl}methylene)-3-oxo-2,3-dihydro-1-benzofuran-4,6-diyl bis(diisopropylcarbamate)]	–	0.05 10e−6 cm/s	–	–	–	–	–	–	–	–	–	8	9.5	24	1141, ng, ml	940, ng, ml	1106 ng, ml
CCOP(=O)(OCC)Oc1cc2c(c(OP(=O)(OCC)OCC)c1)C(=O)/C(=C/c1c(-c3ccccc3)[nH]c3ccc(OC)cc13)O2 [Example 32, tetraethyl (2Z)-2-[(5-methoxy-2-phenyl-1H-indol-3-yl)methylene]-3-oxo-2,3-dihydro-1-benzofuran-4,6-diyl bis(phosphate)]	7	0 10e−6 cm/s	–	–	–	–	–	–	–	–	–	2	11	–	–	–	–
CCOP(=O)(OCC)Oc1ccc2c(c1)O/C(=C\c1c(-c3ccccc3)[nH]c3ccc(OC)cc13)C2=O [Example 34, diethyl (2Z)-2-[(5-methoxy-2-phenyl-1H-indol-3-yl)methylene]-3-oxo-2,3-dihydro-1-benzofuran-6-yl phosphate]	17	0 10e−6 cm/s	–	–	–	–	–	–	–	–	–	26	5.67	> 30	6 ng, ml	2 ng, ml	bql
